Converted amounts (≈) assume the structure as drawn.
What was measured:
[1] = system: S. aureus ATCC 6538P; experiment: Antibacterial MIC assay, serial dilution; format: cell-based, Staphylococcus aureus; details: for Selectivity index (CC50/MIC) S. aureus 6538P: CC50 Vero cells / MIC; for MIC: Staphylococcus aureus, ATCC 6538P / ATCC 6539P, read-out: MIC S. aureus ATCC 6539P
Experimental: (§1) Media and solutions were autoclaved or sterile filtered prior to use and mani pulations were carri ed out in a laminar flow hood. Antibacterial t esting was performed in polypropylene 96-well flat bottom plates. The minimal inhibitory concentration of blasticidin S (1) hydrochloride, methyl ester (3) trihydrochloride, P10 (2) tri-T FA , phenet hyl amide (4) tri -T FA , an d blastimidines M 19– 22, A, 29–32, P 37–40, and C 43–46 (salt forms as described in the te xt) were assessed against Staphylococcus aureus ΔNorA, S. aureus ATCC 6538P, methicillin-resistant S. aureus (MRSA) ATCC 43300, Enterococcus faecalis ATCC 29212, vancomycin- resistant Enterococcus, Klebsiella pneumoniae ATCC 29665, Pseudomonas aeruginosa,and Acinetobacter baumannii ATCC 17978 using serial dilutions. Doxycycline (Gold Bio) as a positive control and the vehicle as a negative control. Stock solutions of each compound were prepared at 2.56 mg/mL in 50% DMSO/water and serially diluted in 50% DMSO/water to create master plates. From the master plates, 10 μ L o f each dilution was applied to test plates using a Bravo automated liquid transfer system (Agilent).
(§2) Bacteria previously grown overnight (37 °C, 120–200 RPM), in LB broth were diluted to an OD600 of 0.05 in cation-adjusted Mueller-Hinton broth (CAMHB), grown to an OD600 of ~0.5, and diluted to an OD600 of 0.004 in CAMHB . These diluted cultures were applied to the test plates (190 μL per test well) resulting in final concentrations of the test compounds of 128–1 μg/ m L.
(§3) Growth controls (wells with inoculated media but no vehicle or test compounds) were included to assess any potential toxicity from the vehicle. Th e plates were in cubated at 37 °C for 16–18 h, except fo r VRE and E. faecalis, which w ere in cub ated at 37 °C fo r 24 h. Inh ibition was determined by measuring the optical density at 600 nm (OD60 0) with a Cytation 3 pl ate read er (BioTek). The optical density measurem ents were no rmalized to the positive and negative controls and the vehicle and growth controls were compared and found to b e indistinguishable, indicating no toxicity from […]
(§4) the vehicle used. The MIC was the lowest concentration that inhibited >90% of growth. Two biological replicates were performed in duplicate. MIC values are reported as a range from […]

[2] = system: MRSA ATCC 43300; experiment: Antibacterial MIC assay, serial dilution; format: cell-based, Staphylococcus aureus; details: for Selectivity index (CC50/MIC) MRSA 43300: CC50 Vero cells / MIC; for MIC: Staphylococcus aureus, read-out: MIC MRSA ATCC 43300
Experimental: as §1, §2, §3, §4

[3] = system: S. aureus ΔNorA; experiment: Antibacterial MIC assay, serial dilution; format: cell-based, Staphylococcus aureus; details: for Selectivity index (CC50/MIC) S. aureus ΔNorA: CC50 Vero cells / MIC; for MIC: Staphylococcus aureus, read-out: MIC S. aureus ∆NorA
Experimental: as §1, §2, §3, §4

[4] = system: Methicillin resistant S. aureus (MRSA) USA300; experiment: Antibacterial MIC assay, serial dilution; format: cell-based, Staphylococcus aureus; details: for Selectivity index (CC50/MIC) MRSA USA300: CC50 Vero cells / MIC; for MIC: Staphylococcus aureus, read-out: MIC Methicillin resistant S. aureus (MRSA) USA300
[5] = system: Escherichia coli BAA-2452; experiment: Antibacterial MIC assay, serial dilution; format: cell-based; details: BAA2452, read-out: MIC Escherichia coli BAA-2452
[6] = Cytotoxicity assay (MTS/PMS); format: cell-based; details: monkey, Vero cells (monkey kidney epithelial cells); 24 h treatment, MTS/PMS, average of three biological replicates; read-out: CC50 against Vero cells
Experimental: (§5) The potential cytotoxic eff ect of the test compounds was investigated using Vero cells (monkey kidney epitheli al cells) following est ablished protocols.3 Briefly, Vero cells were plated into 96-well plates supplemented with Dulbecco's Modified Eagle Medium (DMEM) containing 10% fetal bovine serum (FBS). The cells were placed in a humidified 37 °C environment for incubation with 5% CO₂ for 24 h to allow proper adherence and growth. Following the incubation period, the culture medium was replaced with fresh DMEM containing serial dilutions of the test compounds, while the v ehicle alon e w as used as a negative control. The treated cells were incubated for an additional 24 h. To assess cell viability, the MTS/PMS reagent was added to each well and incubat ed for 4 h. A microplate reader (S ynergy H1, BioTek, USA) was used to m easure absorbance at 490 nm. Al l experiments wer e cond ucted usingthree biologi cal replicates .
(§6) Ta b l e S2. CC50 valuesa (µg/mL) against Vero cells […]
(§7) aValues at which the cell viability (normalized to vehicle control) was 50%. […]

[7] = system: Vero cells; experiment: Cytotoxicity assay (MTS/PMS); format: cell-based; details: Vero cells, chimera vs parent of its series
Experimental: as §5, §6, §7

[8] = system: Vancomycin resistant Enterococcus faecium NR-31909 (VRE); experiment: Antibacterial MIC assay, serial dilution; format: cell-based; details: for MIC: Enterococcus faecium, VRE, 24 h, read-out: MIC Vancomycin resistant Enterococcus faecium NR-31909 (VRE); for Selectivity index (CC50/MIC) VRE NR-31909: CC50 Vero cells / MIC
Experimental: as §1, §2, §3, §4

[9] = system: Enterococcus faecalis ATCC 29212; experiment: Antibacterial MIC assay, serial dilution; format: cell-based; details: for Selectivity index (CC50/MIC) E. faecalis 29212: CC50 Vero cells / MIC; for MIC: Enterococcus faecalis, ATCC 29112 / ATCC 29212, 24 h, read-out: MIC E. faecalis ATCC 29112
Experimental: as §1, §2, §3, §4

[10] = system: Klebsiella pneumoniae ATCC 29665; experiment: Antibacterial MIC assay, serial dilution; format: cell-based; details: for MIC: Klebsiella pneumoniae, ATCC29665, range from biological replicates, read-out: MIC K. pneumoniae ATCC-29665
Experimental: as §1, §2, §3, §4

[11] = system: Acinetobacter baumannii ATCC 17978; experiment: Antibacterial MIC assay, serial dilution; format: cell-based; details: ATCC17978, range from biological replicates
Experimental: as §1, §2, §3, §4

[12] = system: Pseudomonas aeruginosa; experiment: Antibacterial MIC assay, serial dilution; format: cell-based; details: for Selectivity index (CC50/MIC) P. aeruginosa: CC50 Vero cells / MIC; for MIC: Pseudomonas aeruginosa, range from biological replicates, read-out: MIC P. aeruginosa
Experimental: as §1, §2, §3, §4

[13] = system: Methicillin resistant Staphylococcus epidermidis (MRSE) ATCC 35984 NRS101; experiment: Antibacterial MIC assay, serial dilution; format: cell-based; details: for Selectivity index (CC50/MIC) MRSE 35984: CC50 Vero cells / MIC; for MIC: Staphylococcus epidermidis, read-out: MIC Methicillin resistant Staphylococcus epidermidis (MRSE) ATCC 35984 NRS101
[14] = system: Vancomycin resistant E. faecalis NR-31972 (VRE); experiment: Antibacterial MIC assay, serial dilution; format: cell-based, Enterococcus faecalis; details: for Selectivity index (CC50/MIC) VRE NR-31972: CC50 Vero cells / MIC; for MIC: Enterococcus faecalis, VRE, 24 h, read-out: MIC Vancomycin resistant E. faecalis NR-31972 (VRE)
Experimental: as §1, §2, §3, §4

Compound	Selectivity index (CC50/MIC) S. aureus 6538P [1]	MIC [1]	Selectivity index (CC50/MIC) MRSA 43300 [2]	MIC [2]	Selectivity index (CC50/MIC) S. aureus ΔNorA [3]	MIC [3]	Selectivity index (CC50/MIC) MRSA USA300 [4]	MIC [4]	MIC [5]	CC50 at 24 h [6]	MIC [8]	Selectivity index (CC50/MIC) E. faecalis 29212 [9]	MIC [9]	MIC [10]	MIC [11]	Selectivity index (CC50/MIC) P. aeruginosa [12]	MIC [12]	Selectivity index (CC50/MIC) MRSE 35984 [13]	MIC [13]	Selectivity index (CC50/MIC) VRE NR-31972 [14]	also measured
CC(=O)Nc1ccc(C(=O)Nc2ccn([C@H]3C=C[C@H](NC(=O)C[C@@H](N)CCN(C)C(=N)N)[C@@H](C(=O)O)O3)c(=O)n2)cc1 [Blastimidine C4]	<1.6	> 128 µg/mL	<1.6	> 128 µg/mL	<1.6	> 128 µg/mL	<1.6	> 128 µg/mL	> 128 µg/mL	203 µg/mL (≈ 348 µM)	> 128 µg/mL	<1.6	> 128 µg/mL	128 µg/mL (≈ 219 µM)	> 128 µg/mL	<1.6	> 128 µg/mL	<1.6	> 128 µg/mL	<1.6	fold lower cytotoxicity relative to parent molecule [7]: > 10 fold; MIC [14]: > 128 µg/mL
COC(=O)[C@H]1O[C@@H](n2ccc(NC(=O)c3ccc(NC(=O)[C@@](C)(N)CO)cc3)nc2=O)C=C[C@@H]1NC(=O)C[C@@H](N)CCN(C)C(=N)N [Blastimidine M5]	2.3	64 µg/mL (≈ 97.5 µM)	2.3	64 µg/mL (≈ 97.5 µM)	2.3	64 µg/mL (≈ 97.5 µM)	2.3	64 µg/mL (≈ 97.5 µM)	32 µg/mL (≈ 48.7 µM)	150 µg/mL (≈ 228 µM)	16 to 32 µg/mL (≈ 24.4 to 48.7 µM)	2.3	64 µg/mL (≈ 97.5 µM)	32 to 64 µg/mL (≈ 48.7 to 97.5 µM)	> 128 µg/mL	<1.2	> 128 µg/mL	2.3	64 µg/mL (≈ 97.5 µM)	2.3	Selectivity index (CC50/MIC) VRE NR-31909 [8]: 6.3; Selectivity index (CC50/MIC) K. pneumoniae ([10]; CC50 Vero cells / MIC): 3.5; MIC [14]: 64 µg/mL (≈ 97.5 µM)
CN(CC[C@H](N)CC(=O)N[C@H]1C=C[C@H](n2ccc(N)nc2=O)O[C@@H]1C(=O)NCCc1ccccc1)C(=N)N [Blastimidine P1, blasticidin S phenethylamide]	15	16 µg/mL (≈ 30.4 µM)	7.3	32 µg/mL (≈ 60.9 µM)	1.8	128 µg/mL (≈ 244 µM)	20	8 to 16 µg/mL (≈ 15.2 to 30.4 µM)	> 128 µg/mL	235 µg/mL (≈ 447 µM)	128 µg/mL (≈ 244 µM)	15	16 µg/mL (≈ 30.4 µM)	> 128 µg/mL	> 128 µg/mL	2.8	64 to 128 µg/mL (≈ 122 to 244 µM)	59	4 µg/mL (≈ 7.61 µM)	15	Selectivity index (CC50/MIC) VRE NR-31909 [8]: 1.8; MIC [14]: 16 µg/mL (≈ 30.4 µM)
